Results taken from PubChem BioAssay (NCI).
Where “and” joins values, the source holds several entries; their conditions need not be identical. Equal values may be shown once.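 Compound exposure: 48 hours, 5 concentrations, 96-well plates. The concentration for 50% growth inhibition is given as GI50. TGI is the concentration that stops growth completely.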 Where a SMILES comes first, the peptide text is derived from it. [ ]: non-standard residue; d: D form. The star is where a group is joined. NMeF = CN[C@@H](Cc1ccccc1)C(=O)O; NMeV = CN[C@H](C(=O)O)C(C)C; Boc = CC(C)(C)OC(=O)*; OBn = c1ccc(CO*)cc1

What was measured:
Test in all cases: growth of human tumour cells (NCI), 48 h
SR leukemia = tested on: SR leukemia
MDA-MB-435 = tested on: MDA-MB-435
CAKI-1 renal = tested on: CAKI-1 renal
SN12C renal = tested on: SN12C renal
SF-295 CNS = tested on: SF-295 CNS
HCT-116 colon = tested on: HCT-116 colon
TK-10 renal = tested on: TK-10 renal
RPMI-8226 leukemia = tested on: RPMI-8226 leukemia
DU-145 prostate = tested on: DU-145 prostate
OVCAR-4 ovarian = tested on: OVCAR-4 ovarian

| SMILES | GI50 (SR leukemia) [µM] | TGI (SR leukemia) [µM] | GI50 (MDA-MB-435) [µM] | TGI (MDA-MB-435) [µM] | GI50 (CAKI-1 renal) | TGI (CAKI-1 renal) | GI50 (SN12C renal) [µM] | TGI (SN12C renal) [µM] | GI50 (SF-295 CNS) [µM] | TGI (SF-295 CNS) | GI50 (HCT-116 colon) | TGI (HCT-116 colon) [µM] | GI50 (TK-10 renal) | TGI (TK-10 renal) | GI50 (RPMI-8226 leukemia) [µM] | TGI (RPMI-8226 leukemia) [µM] | GI50 (DU-145 prostate) [µM] | TGI (DU-145 prostate) [µM] | GI50 (OVCAR-4 ovarian) | TGI (OVCAR-4 ovarian) |
| --- | --- | --- | --- | --- | --- | --- | --- | --- | --- | --- | --- | --- | --- | --- | --- | --- | --- | --- | --- | --- |
| COc1ccc2c(c1)/C(=C\c1c(Cl)n(C)c3ccccc13)C(=O)N2 | 0.157 | 0.605 | 0.286 | 1.26 | 1.1 µM | 13.6 µM | 2.57 | 20.1 | 0.981 | 6.66 µM | 1.29 µM | > 28.6 | 9.26 µM | 34.2 µM | 1.76 | > 34.3 | 3.07 | 15 | 7.07 µM | > 100 µM |
| COc1cccc(Cn2c(-c3nonc3NC(C)=O)nc3ccccc32)c1 | 4.14 | > 100 | 0.642 | 5.48 | 2.05 µM | > 100 µM | 5.48 | > 100 | 1.85 | 78.7 µM | 4.94 µM | > 100 | 2.65 µM | 40.8 µM | 5.34 | > 100 | 3.42 | 83.9 | 15.6 µM | > 100 µM |
| CSc1nc(C)c(Br)c(=O)n1C1OC(COC(C)=O)C(OC(C)=O)C(OC(C)=O)C1OC(C)=O (stereo unspecified) | – | > 100 | – | > 100 | > 100 µM and 33.9 µM | > 100 µM and 83.9 µM | – | > 100 | – | 79.7 µM and 70.8 µM | > 88.4 µM and 35 µM | > 100 | 43.1 µM and 20.6 µM | > 100 µM and 55.9 µM | – | > 100 | – | > 100 | > 100 µM and 20.5 µM | > 100 µM and 52.2 µM |
| CCC(c1ccc2cc(O)ccc2c1)C(C)(C)C(=O)O (stereo unspecified) | – | > 100 | – | > 100 | – | > 100 µM | – | > 100 | – | > 100 µM | – | > 100 | – | > 100 µM | – | > 100 | – | > 100 | – | > 100 µM |
| O=C1/C(=C/c2ccccc2F)CN(C(=O)C(Cl)Cl)C/C1=C\c1ccccc1F | 0.0665 | – | 0.313 | 1.01 | 0.986 µM | 2.3 µM | 0.244 | 0.691 | 0.391 | 1.52 µM | 0.131 µM | 0.286 | 1.61 µM | 3.02 µM | 0.0831 | 0.935 | 1.01 | 2.35 | 0.526 µM | 1.83 µM |
| CC(C)[C@@H](C(=O)N1CCC[C@H]1C(=O)OCc1ccccc1)N(C)C(=O)[C@H](C(C)C)N(C)C(=O)[C@H](Cc1ccccc1)N(C)C(=O)[C@H](NC(=O)OC(C)(C)C)C(C)C (Boc-[dV][NMeF][NMeV][NMeV]P-OBn) | – | > 100 | – | > 50 | > 100 µM | > 100 µM | – | > 100 | > 100 | > 100 µM | 19.6 µM | > 100 | – | > 100 µM | 4.6 | > 100 | – | > 50 | – | > 100 µM |
| CCOC(=O)c1c(Cl)c2c(n1Cc1cccc(OC)c1)-c1oncc1CC2 | 0.444 | 24.1 | 0.298 | 15.6 | 1.85 µM | > 100 µM | 6.04 | > 100 | 0.658 | 15.9 µM | 0.904 µM | 24.2 | 6.59 µM | > 100 µM | 5.15 | > 100 | 2.42 | 27 | 6.46 µM | > 100 µM |
| Cc1cc(C)c2nc3nc(C)cc(C)c3c(N)c2c1 | 2.47 | 13.3 | 3.53 | 16.6 | 1.83 µM | 6.12 µM | 4.37 | 36.2 | 2.4 | 12 µM | 3.12 µM | 15 | 3.34 µM | 19.1 µM | 4.55 | 24.8 | 4.72 | 17.9 | 3.63 µM | 19.8 µM |
| Cc1ccc(-c2nc(N)c(C#N)c3c2CCOc2c-3ccc3ccccc23)cc1 | 0.0882 | > 100 | 0.0309 | 0.459 | 0.171 µM | 16.9 µM | 12.3 | 53.9 | 0.144 | 1.87 µM | 0.21 µM | – | 0.469 µM | 13.6 µM | 0.29 | 2.26 | 2.04 | 17.2 | 16.3 µM | > 79.5 µM |
| OCC1OC2OC3C(CO)OC(OC4C(CO)OC(OC5C(CO)OC(OC6C(CO)OC(OC7C(CO)OC(OC1C(O)C2O)C(O)C7O)C(O)C6O)C(O)C5O)C(O)C4O)C(O)C3O (stereo unspecified) (tested in a mixture with another compound) | – | 34.3 | – | 40.7 | – | > 100 µM | – | > 100 | – | > 100 µM | – | > 100 | – | > 100 µM | – | > 100 | – | > 100 | – | > 100 µM |
